Test results as given in US20260137706A1, “METHODS OF TREATING INFLAMMATORY DISEASES” (INTERLINE THERAPEUTICS, INC., priority 2023, published 2026).
pIC50: −log10 of the molar value. Like-named read-outs stand apart in the source and are kept apart here.

Experiments:
[1] = system: NF-κB pathway (SEAP) in THP1-Dual cells; test: THP-1 Dual cell SEAP assay (L18-MDP stimulated); assay type: cell-based; conditions: Homo sapiens, THP1-Dual, read-out: NF-κB THP1 IC50 bin
Summary of the method: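 IC50 values derive from non-linear regression of % inhibition, calculated against DMSO/L18-MDP-treated wells after media-only subtraction. NF-κB SEAP activity was read at OD 620-655 nm (QUANTI-Blue, 2 h, 37 °C) from supernatants of THP1-Dual cells. Cells had been compound-treated 30 min before overnight (20-24 h) stimulation with 10 ng/mL final L18-MDP.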

[2] = target: T1, binding of His-XIAP(BIR2)-avi fusion protein to GST-RIPK2 fusion protein (RIPK2/XIAP) (Homo sapiens, UniProt O43353); test: RIPK2-XIAP binding competition PPI assay (TR-FRET); conditions: RIPK2/XIAP binding competition PPI assay; for Emax: Amax, read-out: PPI Amax bin
T1 construct: made in house; host or cells: baculovirus infected Sf9 cells
T1 sequence (O43353 1-310 limits assumed): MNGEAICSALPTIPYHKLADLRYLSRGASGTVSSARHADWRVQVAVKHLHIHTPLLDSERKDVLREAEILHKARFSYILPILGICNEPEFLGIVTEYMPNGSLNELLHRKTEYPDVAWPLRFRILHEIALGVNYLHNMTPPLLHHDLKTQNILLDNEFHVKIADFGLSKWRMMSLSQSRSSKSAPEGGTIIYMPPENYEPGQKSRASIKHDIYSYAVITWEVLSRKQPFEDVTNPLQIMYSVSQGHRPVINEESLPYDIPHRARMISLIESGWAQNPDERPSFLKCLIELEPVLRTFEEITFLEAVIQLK
Summary of the method: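 Compounds (in DMSO, 100-fold stock) incubated 120 min at 23 °C with 1 nM GST-RIPK2 (aa 1-310) and 25 nM His-XIAP(BIR2 aa 152-231)-avi, plus anti-His-XL665 and anti-GST-Tb, in pH 7.5 Tris buffer. Read-out: 665/520 nm emission ratio. Normalized to no-inhibitor (0%) and 50 nM GSK583 (−100%); Amax binned A–D.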

[3] = target: T2, GST-RIPK2 fusion protein (human RIPK2, amino acids 1-310) (Homo sapiens, UniProt O43353); test: RIPK2 binding competition assay (TR-FRET, Tracer 199 displacement); conditions: for pIC50: 10 nM Tracer 199, 1 nM GST-RIPK2, read-out: RIPK2 IC50
T2 construct: made in house; host or cells: baculovirus infected Sf9 cells
T2 sequence (O43353 1-310): as the sequence (O43353 1-310 limits assumed) above
Summary of the method: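 IC50 derived from the TR-FRET emission ratio (665/620 nm, 337 nm excitation), normalized with no-inhibitor and no-enzyme controls. Incubation 45 min at 22 °C, pH 7.5 Tris buffer, with final 10 nM tracer, 1 nM Sf9-expressed GST-RIPK2 fragment (aa 1-310) and 0.5 nM Tb-labelled anti-GST.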

Structure (SMILES)	pIC50 [1]	Emax [2]	pIC50 ([2]; read-out: PPI IC50 bin)	pIC50 [3]	pIC50 ([2]; PPI IC50 bin)	IC50 ([3]; RIPK2 IC50 (nM), 10 nM Tracer 199, 1 nM GST-RIPK2)
C[C@@H](CO)COc1cn2ncc(-c3cc(F)c(N)nc3F)c2cc1S(=O)(=O)C(C)(C)C [Example 194, (S)-3-((3-(6-amino-2,5-difluoropyridin-3-yl)-5-(tert-butylsulfonyl)pyrazolo [1,5-a]pyridin-6-yl)oxy)-2-methylpropan-1-ol]	6.60 to 7.30	> 80%	8.60 to 9.00	> 9.00		
CC(F)(CO)COc1cc2ncc(-c3cc(F)c(N)nc3F)n2cc1S(=O)(=O)C(C)(C)C (stereo not shown) [Example 204, 3-((3-(6-amino-2,5-difluoropyridin-3-yl)-6-(tert-butylsulfonyl)imidazo [1,2-a]pyridin-7-yl)oxy)-2-fluoro-2-methylpropan-1-ol]	6.60 to 7.30	> 80%	8.60 to 9.00	8.60 to 9.00		
CC(C)(C)S(=O)(=O)c1cn2c(-c3cnc4cn[nH]c4c3)cnc2cc1OCCO [Example 210, 2-((6-(tert-butylsulfonyl)-3-(1H-pyrazolo[4,3-b]pyridin-6-yl)imidazo[1,2-a]pyridin-7-yl)oxy)ethan-1-ol]	< 6.00	< 30%	< 7.70	< 7.70		
CC(C)(C)S(=O)(=O)c1cn2c(-c3cc(F)c(N)nc3F)cnc2cc1OCC1(CO)COC1 [Example 49, (3-(((3-(6-amino-2,5-difluoropyridin-3-yl)-6-(tert-butylsulfonyl)imidazo[1,2-a]pyridin-7-yl)oxy)methyl)oxetan-3-yl)methanol]	6.00 to 6.60	> 80%	7.70 to 8.60	7.70 to 8.60		
[2H]C([2H])([2H])Oc1c(F)cc(-c2cnc3cc(OC)c(S(=O)(=O)C(C)(C)C)cn23)cc1NS(=O)(=O)CC1COC1 [Example 133, N-(5-(6-(tert-butylsulfonyl)-7-methoxyimidazo[1,2-a]pyridin-3-yl)-3-fluoro-2-(methoxy-d3)phenyl)-1-(oxetan-3-yl)methanesulfonamide]	> 7.30	55 to 80%	> 9.00	> 9.00		
CC1(C)CNc2ncc(-c3cnc4cc(OCCO)c(S(=O)(=O)C(C)(C)C)cn34)cc21 [Example 230, 2-((6-(tert-butylsulfonyl)-3-(3,3-dimethyl-2,3-dihydro-1H-pyrrolo[2,3-b]pyridin-5-yl)imidazo[1,2-a]pyridin-7-yl)oxy)ethan-1-ol]	< 6.00	< 30%	< 7.70	< 7.70		
C[C@@H](CO)Oc1cc2ncc(-c3cc(F)c(N)nc3F)n2cc1S(=O)(=O)C(C)(C)C [Example 173, (S)-2-((3-(6-amino-2,5-difluoropyridin-3-yl)-6-(tert-butylsulfonyl)imidazo[1,2-a]pyridin-7-yl)oxy)propan-1-ol]	< 6.00	> 80%			7.70 to 8.60	2.5 to 20 nM
COc1c(F)cc(-c2cnc3cc(OC[C@@H](C)CO)c(S(=O)(=O)C(C)(C)C)cn23)cc1NS(C)(=O)=O [Example 182, (S)-N-(5-(6-(tert-butylsulfonyl)-7-(3-hydroxy-2-methylpropoxy)imidazo[1,2-a]pyridin-3-yl)-3-fluoro-2-methoxyphenyl)methanesulfonamide]	> 7.30	55 to 80%	> 9.00	> 9.00		
CC(C)(C)S(=O)(=O)c1cc2c(-c3cc(F)c(N)nc3F)cnn2cc1OCCOP(=O)(O)O [Example 188, 2-((3-(6-amino-2,5-difluoropyridin-3-yl)-5-(tert-butylsulfonyl)pyrazolo[1,5-a]pyridin-6-yl)oxy)ethyl dihydrogen phosphate]	< 6.00	> 80%	< 7.70	< 7.70		
COc1cc2ncc(-c3cc(F)c(OC)c(NS(=O)(=O)c4ccccc4)c3)n2cc1S(=O)(=O)C(C)(C)C [Example 281, N-(5-(6-(tert-butylsulfonyl)-7-methoxyimidazo[1,2-a]pyridin-3-yl)-3-fluoro-2-methoxyphenyl)benzenes ulfonamide]	> 7.30	> 80%	> 9.00	> 9.00		
CC(C)(C)S(=O)(=O)c1cn2c(-c3cnc4[nH]cc(F)c4c3)cnc2cc1OCCO [Example 220, 2-((6-(tert-butylsulfonyl)-3-(3-fluoro-1H-pyrrolo[2,3-b]pyridin-5-yl)imidazo[1,2-a]pyridin-7-yl)oxy)ethan-1-ol]	> 7.30	> 80%	> 9.00	> 9.00		
COc1cc2ncc(-c3cc(F)c(OC)c4[nH]c(CN5CC(O)C5)nc34)n2cc1S(=O)(=O)C(C)(C)C [Example 185, 1-((4-(6-(tert-butylsulfonyl)-7-methoxyimidazo[1,2-a]pyridin-3-yl)-6-fluoro-7-methoxy-1H-benzo[d]imidazol-2-yl)methyl)azetidin-3-ol]	6.60 to 7.30	30 to 55%	8.60 to 9.00	7.70 to 8.60		
CC(C)(C)S(=O)(=O)c1cn2c(-c3cc(F)c(N)nc3F)cnc2cc1OCC(CO)C(F)(F)F (stereo not shown) [Example 57, 2-(((3-(6-amino-2,5-difluoropyridin-3-yl)-6-(tert-butylsulfonyl)imidazo[1,2-a]pyridin-7-yl)oxy)methyl)-3,3,3-trifluoropropan-1-ol]	6.00 to 6.60	> 80%	7.70 to 8.60	7.70 to 8.60		
COc1cc2ncc(-c3cc(F)c(OC)c(NC(=O)Cc4cnn(C)c4)c3)n2cc1S(=O)(=O)C(C)(C)C [Example 297, N-(5-(6-(tert-butylsulfonyl)-7-methoxyimidazo[1,2-a]pyridin-3-yl)-3-fluoro-2-methoxyphenyl)-2-(1-methyl-1H-pyrazol-4-yl)acetamide]	6.60 to 7.30	> 80%	8.60 to 9.00	8.60 to 9.00		
COc1cc2ncc(-c3cc(F)c(N)nc3F)n2cc1S(=O)(=O)C(C)(C)CN1CCOCC1 [Example 168, 3,6-difluoro-5-(7-methoxy-6-((2-methyl-1-morpholinopropan-2-yl)sulfonyl)imidazo[1,2-a]pyridin-3-yl)pyridin-2-amine]	6.00 to 6.60	> 80%	7.70 to 8.60	7.70 to 8.60		
C[C@H](O)CCOc1cc2ncc(-c3cc(F)c(N)nc3F)n2cc1S(=O)(=O)C(C)(C)C [Example 34, (S)-4-((3-(6-amino-2,5-difluoropyridin-3-yl)-6-(tert-butylsulfonyl)imidazo[1,2-a]pyridin-7-yl)oxy)butan-2-ol]	6.00 to 6.60	> 80%	7.70 to 8.60	7.70 to 8.60		
CCCS(=O)(=O)Nc1cc(-c2cnc3cc(OC)c(S(=O)(=O)C(C)(C)CO)cn23)cc(Cl)c1OC [Example 129, N-(3-chloro-5-(6-((1-hydroxy-2-methylpropan-2-yl)sulfonyl)-7-methoxyimidazo[1,2-a]pyridin-3-yl)-2-methoxyphenyl)propane-1-sulfonamide]	6.60 to 7.30	> 80%	> 9.00	> 9.00		
COc1ccn2ncc(-c3cc(N)cc(F)c3)c2n1 [Example 80, 3-fluoro-5-(5-methoxypyrazolo[1,5-a]pyrimidin-3-yl)aniline]	< 6.00	< 30%	< 7.70	< 7.70		
COc1cc2ncc(-c3cc(F)c(OC)c4[nH]ncc34)n2cc1S(=O)(=O)C(C)(C)C [Example 120, 4-(6-(tert-butylsulfonyl)-7-methoxyimidazo[1,2-a]pyridin-3-yl)-6-fluoro-7-methoxy-1H-indazole]	< 6.00	55 to 80%	7.70 to 8.60	7.70 to 8.60		
CC(C)(C)S(=O)(=O)c1cn2c(-c3cc4cc[nH]c4cc3F)cnc2cc1OCCO [Example 217, 2-((6-(tert-butylsulfonyl)-3-(6-fluoro-1H-indol-5-yl)imidazo[1,2-a]pyridin-7-yl)oxy)ethan-1-ol]	6.60 to 7.30	55 to 80%	> 9.00	> 9.00		
COC(=O)Nc1ccc(-c2cnc3cc(OC)c(S(=O)(=O)C(C)(C)C)cn23)cn1 [Example 9, methyl (5-(6-(tert-butylsulfonyl)-7-methoxyimidazo[1,2-a]pyridin-3-yl)pyridin-2-yl)carbamate]	< 6.00	< 30%	< 7.70	< 7.70		
C[C@H](CO)COc1cc2ncc(-c3cc(Cl)c(N)nc3F)n2cc1S(=O)(=O)C(C)(C)C [Example 198, (R)-3-((3-(6-amino-5-chloro-2-fluoropyridin-3-yl)-6-(tert-butylsulfonyl)imidazo [1,2-a]pyridin-7-yl)oxy)-2-methylpropan-1-ol]	6.60 to 7.30	> 80%	> 9.00	8.60 to 9.00		
